Reference: PMC7567501 (Journal of Enzyme Inhibition and Medicinal Chemistry, 2019)

Target: T1, Aβ1-42 (Homo sapiens, UniProt P05067)
T1 construct: Amyloid β-peptide (1–42), Aβ1-42, was purchased from GeneCust; purchased GeneCust
Assay: TEM imaging of Aβ aggregation inhibition
Settings: compound 50 μM, 37 °C, 24 h, pH 6.6
Procedure: Nevertheless, since quantitative analysis based on fluorescence of copper(II) containing solutions may result in somehow erroneous conclusions due to some potential emission quenching by this paramagnetic ion, a fluorescence-independent study by transmission electron microscopy (TEM) was also performed for compound 21. […] Overall, TEM confirms the role of the ligand in the inhibition of Aβ aggregation.
Figure 6. TEM images of Aβ aggregation inhibition performed with samples incubated (37 °C) for 24 h. Experimental conditions: [Aβ1–42] = [CuCl2] = 25 μM; [21] = 50 μM; pH = 6.6.
For the study of the β-amyloid (Aβ) aggregation, the ThT fluorescence assay was performed using a Varian Cary Eclipse fluorimeter at the following wavelengths: excitation (446 nm) and emission (485 nm). Amyloid β-peptide (1–42), Aβ1-42, was purchased from GeneCust as a lyophilised powder stored at −20 °C. TEM assays were performed with a Hitachi H8100 transmission electron microscope with a LaB6 filament (200 kV, 10000–20000 × magnification) at MicroLab/IST.
The Transmission Electron Microscopy (TEM) is a high resolution technique used to study biological or inorganic samples at 2–3 nm level, through black and white high-quality images. The compound 21 was selected among those with better anti-Aβ aggregation assay. […]

T1 sequence (P05067 672-713 limits assumed): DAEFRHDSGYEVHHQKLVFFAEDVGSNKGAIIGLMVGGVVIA

Compound: O=C(NCCCNc1c2c(nc3ccccc13)CCCC2)c1cc2cccc(O)c2o1 [Compound 21, 7-Hydroxy-N-(3-((1,2,3,4-tetrahydroacridin-9-yl)amino)propyl)benzofuran-2-carboxamide]
- TEM morphology of Aβ42 aggregates, self-induced ([Aβ1–42] = 25 μM, no copper): the aggregates became sparser and more elongated
- TEM morphology of Aβ42 aggregates in presence of copper ([Aβ1–42] = [CuCl2] = 25 μM): formation of homogenous low molecular aggregates
